Reference: ChEMBL document CHEMBL5131433, “Novel benzothiazole-based dual VEGFR-2/EGFR inhibitors targeting breast and liver cancers: Synthesis, cytotoxic activity, QSAR and molecular docking studies” (Bioorg Med Chem Lett, 2022)

What was measured:
MCF7 = test: cells; conditions: Homo sapiens, MCF7, 72 h
Description: Anticancer activity against human MCF7 cells assessed as inhibition of cell growth incubated for 3 days by MTT assay

HepG2 = test: cells; conditions: Homo sapiens, HepG2, 72 h
Description: Anticancer activity against human HepG2 cells assessed as inhibition of cell growth incubated for 3 days by MTT assay

MDA-MB-231 = test: Anticancer activity against human MDA-MB-231 cells assessed as inhibition of cell growth incubated for 3 days by MTT assay; assay type: functional, cell-based; conditions: MDA-MB-231, 72 h
[1] = Cytotoxicity against human WI-38 cells assessed as inhibition of cell growth incubated for 3 days by MTT assay; assay type: toxicity, cell-based
[2] = molecular target: Vascular endothelial growth factor receptor 2 (Homo sapiens, UniProt P35968); test: Inhibition of VEGFR2 (unknown origin)
[3] = molecular target: Epidermal growth factor receptor (Homo sapiens, UniProt P00533); test: Inhibition of EGFR (unknown origin)
Epidermal growth factor receptor, sequence (P00533 whole entry): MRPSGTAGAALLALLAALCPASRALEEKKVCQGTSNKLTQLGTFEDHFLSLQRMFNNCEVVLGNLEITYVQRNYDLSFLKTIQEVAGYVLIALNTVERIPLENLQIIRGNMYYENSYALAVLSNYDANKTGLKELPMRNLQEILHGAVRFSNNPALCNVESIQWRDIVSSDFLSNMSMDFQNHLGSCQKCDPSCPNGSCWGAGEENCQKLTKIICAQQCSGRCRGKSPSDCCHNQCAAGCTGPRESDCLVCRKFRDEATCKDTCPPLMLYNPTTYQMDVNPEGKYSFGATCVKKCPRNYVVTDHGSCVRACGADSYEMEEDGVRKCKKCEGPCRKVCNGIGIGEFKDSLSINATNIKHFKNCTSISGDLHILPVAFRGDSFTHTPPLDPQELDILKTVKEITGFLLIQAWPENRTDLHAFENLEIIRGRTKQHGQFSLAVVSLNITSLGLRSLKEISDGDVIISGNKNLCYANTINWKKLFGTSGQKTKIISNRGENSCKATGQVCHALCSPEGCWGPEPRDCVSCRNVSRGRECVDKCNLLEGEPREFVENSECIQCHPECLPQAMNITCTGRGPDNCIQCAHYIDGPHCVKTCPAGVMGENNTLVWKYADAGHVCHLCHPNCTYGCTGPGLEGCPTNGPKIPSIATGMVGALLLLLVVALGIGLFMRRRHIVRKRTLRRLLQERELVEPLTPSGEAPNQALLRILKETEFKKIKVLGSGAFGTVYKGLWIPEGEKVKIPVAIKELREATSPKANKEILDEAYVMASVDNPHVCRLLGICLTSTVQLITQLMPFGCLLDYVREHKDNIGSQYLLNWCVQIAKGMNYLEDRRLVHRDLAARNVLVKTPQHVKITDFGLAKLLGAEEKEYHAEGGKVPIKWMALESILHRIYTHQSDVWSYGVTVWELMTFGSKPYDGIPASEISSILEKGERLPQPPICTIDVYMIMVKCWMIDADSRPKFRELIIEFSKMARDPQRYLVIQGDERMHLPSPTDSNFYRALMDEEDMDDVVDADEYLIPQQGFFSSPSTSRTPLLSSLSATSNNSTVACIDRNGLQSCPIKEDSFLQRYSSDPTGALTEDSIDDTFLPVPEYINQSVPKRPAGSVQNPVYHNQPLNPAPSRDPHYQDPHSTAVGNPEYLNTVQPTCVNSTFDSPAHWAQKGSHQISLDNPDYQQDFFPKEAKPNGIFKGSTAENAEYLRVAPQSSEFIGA

Vascular endothelial growth factor receptor 2, sequence (P35968 whole entry): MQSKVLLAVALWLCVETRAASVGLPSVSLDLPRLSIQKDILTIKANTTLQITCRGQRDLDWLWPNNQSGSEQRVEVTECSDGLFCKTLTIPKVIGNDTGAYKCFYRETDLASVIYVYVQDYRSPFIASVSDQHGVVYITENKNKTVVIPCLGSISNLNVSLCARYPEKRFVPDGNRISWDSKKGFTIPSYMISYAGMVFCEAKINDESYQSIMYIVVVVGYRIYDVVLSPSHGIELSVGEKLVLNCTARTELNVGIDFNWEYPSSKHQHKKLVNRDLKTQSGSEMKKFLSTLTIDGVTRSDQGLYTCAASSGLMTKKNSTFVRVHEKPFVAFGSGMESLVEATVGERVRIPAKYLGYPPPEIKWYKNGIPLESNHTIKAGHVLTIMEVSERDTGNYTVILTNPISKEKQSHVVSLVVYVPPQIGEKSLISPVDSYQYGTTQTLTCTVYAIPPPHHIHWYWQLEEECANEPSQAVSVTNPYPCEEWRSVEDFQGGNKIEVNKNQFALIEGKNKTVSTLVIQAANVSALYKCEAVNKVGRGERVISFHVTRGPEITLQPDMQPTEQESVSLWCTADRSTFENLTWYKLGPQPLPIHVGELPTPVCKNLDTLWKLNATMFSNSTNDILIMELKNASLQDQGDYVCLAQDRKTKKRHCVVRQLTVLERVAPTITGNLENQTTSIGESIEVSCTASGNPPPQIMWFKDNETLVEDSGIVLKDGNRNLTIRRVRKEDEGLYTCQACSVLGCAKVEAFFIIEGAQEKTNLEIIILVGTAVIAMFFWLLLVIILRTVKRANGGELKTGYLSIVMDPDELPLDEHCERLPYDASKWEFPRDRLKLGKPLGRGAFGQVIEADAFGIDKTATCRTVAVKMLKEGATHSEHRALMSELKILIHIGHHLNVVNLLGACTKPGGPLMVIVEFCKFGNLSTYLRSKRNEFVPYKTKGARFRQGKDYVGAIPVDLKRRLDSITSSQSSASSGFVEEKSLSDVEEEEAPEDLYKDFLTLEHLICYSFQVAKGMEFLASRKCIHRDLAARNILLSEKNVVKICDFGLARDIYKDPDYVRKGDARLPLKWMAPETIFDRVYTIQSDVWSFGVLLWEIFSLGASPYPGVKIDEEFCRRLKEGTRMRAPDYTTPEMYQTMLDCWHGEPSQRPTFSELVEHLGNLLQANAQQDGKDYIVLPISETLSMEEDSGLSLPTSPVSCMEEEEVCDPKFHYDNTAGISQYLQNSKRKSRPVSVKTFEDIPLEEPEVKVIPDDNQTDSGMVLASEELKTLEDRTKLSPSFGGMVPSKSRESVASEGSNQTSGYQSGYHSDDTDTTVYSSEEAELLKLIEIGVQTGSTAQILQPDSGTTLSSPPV

Compound | IC50 (MCF7) [µM] | IC50 (HepG2) [µM] | IC50 (MDA-MB-231) [µM] | IC50 [2] [µM] | IC50 [3] [µM] | IC50 at 3 days [1] [µM]
COc1cc(-c2nc3ccccc3s2)ccc1OCC(=O)NNC(=O)CN[C@@H](CCSC)C(=O)O | 1.95 | 3.78 | – | – | – | –
COc1cc(-c2nc3ccccc3s2)ccc1OCC(=O)NNC(=O)CNC(=N)NCCC[C@H](N[N+](=O)[O-])C(=O)O | 1.96 | 3.49 | – | – | – | –
COc1cc(-c2nc3ccccc3s2)ccc1OCC(=O)NNC(O)CN(C)CC(=O)O (stereo not drawn) | 1.96 | 3.03 | – | – | – | –
CCOC(=O)[C@H](CS(=O)(=O)O)NCC(=O)NNC(=O)COc1ccc(-c2nc3ccccc3s2)cc1OC | 1.99 | 3.36 | – | – | – | –
CCOC(=O)CN(C)CC(=O)NNC(=O)COc1ccc(-c2nc3ccccc3s2)cc1OC | 1.98 | 3.18 | – | – | – | –
CCOC(=O)[C@H](CS)N(CC(=O)NNC(=O)COc1ccc(-c2nc3ccccc3s2)cc1OC)C(C)=O | 1.89 | 3.01 | – | – | – | –
CCOC(=O)[C@H](CCCNC(=N)NCC(=O)NNC(=O)COc1ccc(-c2nc3ccccc3s2)cc1OC)N[N+](=O)[O-] | 1.95 | 3.73 | – | – | – | –
CC[C@H](C)[C@@H](NCC(=O)NNC(=O)COc1ccc(-c2nc3ccccc3s2)cc1OC)C(=O)O | 1.79 | 3.99 | – | – | – | –
COc1cc(-c2nc3ccccc3s2)ccc1OCC(=O)NNC(=O)CN[C@@H](CS(=O)(=O)O)C(=O)O | 1.87 | 3.69 | – | – | – | –
CCOC(=O)[C@H](NCC(=O)NNC(=O)COc1ccc(-c2nc3ccccc3s2)cc1OC)[C@@H](C)CC | 2.9 | 3.97 | – | – | – | –
CCOC(=O)[C@@H](NCC(=O)NNC(=O)COc1ccc(-c2nc3ccccc3s2)cc1OC)[C@@H](C)CC | 1.95 | 3.46 | – | – | – | –
CCOC(=O)[C@H](CS)NCC(=O)NNC(=O)COc1ccc(-c2nc3ccccc3s2)cc1OC | 2.88 | 3.76 | – | – | – | –
COc1cccc2c1C(=O)c1c(O)c3c(c(O)c1C2=O)C[C@@](O)(C(=O)CO)C[C@@H]3O[C@H]1C[C@H](N)[C@H](O)[C@H](C)O1 [DOXORUBICIN] | – | 2.75 | 7.46 | – | – | 79.7

The next lines start with results.

IC50 (MCF7) [µM] | IC50 (HepG2) [µM] | IC50 (MDA-MB-231) [µM] | IC50 [2] [µM] | IC50 [3] [µM] | Compound | IC50 at 3 days [1] [µM]
0.83 | 2.58 | 10.5 | 0.162 | 0.209 | COc1cc(-c2nc3ccccc3s2)ccc1OCC(=O)NNC(=O)CN[C@@H](Cc1c[nH]c2ccccc12)C(=O)O | 60.8
0.78 | 2.89 | – | – | – | COc1cc(-c2nc3ccccc3s2)ccc1OCC(=O)NNC(=O)CCl | –
0.74 | 2.68 | 5.67 | 0.152 | 0.157 | CCOC(=O)[C@H](Cc1c[nH]cn1)NCC(=O)NNC(=O)COc1ccc(-c2nc3ccccc3s2)cc1OC | 89.4
0.84 | 2.65 | 8.88 | 0.188 | 0.342 | COc1cc(-c2nc3ccccc3s2)ccc1OCC(=O)NNC(=O)CN1CCC[C@H]1C(=O)O | 68.6
1.71 | 3.54 | – | – | – | CC[C@H](C)[C@H](NCC(=O)NNC(=O)COc1ccc(-c2nc3ccccc3s2)cc1OC)C(=O)O | –
1.23 | 3.12 | – | – | – | COc1cc(-c2nc3ccccc3s2)ccc1OCC(=O)NNC(=O)CN[C@@H](CS)C(=O)O | –
0.77 | 2.8 | 7.28 | 0.163 | 0.109 | CCOC(=O)[C@@H]1CCCN1CC(=O)NNC(=O)COc1ccc(-c2nc3ccccc3s2)cc1OC | 75.1
0.89 | 2.8 | 11 | 0.171 | 0.305 | COc1cc(-c2nc3ccccc3s2)ccc1OCC(=O)NNC(=O)CN[C@@H](Cc1c[nH]cn1)C(=O)O | 49.5
1.75 | 3.42 | – | – | – | COc1cc(-c2nc3ccccc3s2)ccc1OCC(=O)NNC(=O)CN(C(C)=O)[C@@H](CS)C(=O)O | –
0.73 | 2.54 | 5.45 | 0.178 | 0.114 | CCOC(=O)[C@H](Cc1c[nH]c2ccccc12)NCC(=O)NNC(=O)COc1ccc(-c2nc3ccccc3s2)cc1OC | 92.7
1.76 | 3.33 | – | – | – | CCOC(=O)[C@H](CCSC)NCC(=O)NNC(=O)COc1ccc(-c2nc3ccccc3s2)cc1OC | –
